From patent publication US8901139B2, “Tricyclic indole derivatives and methods of use thereof” (Merck Sharp & Dohme Corp., priority 2008, dated 2014)

Tested on: HCV replicon cells (replicon RNA level)
Test: Cell-Based HCV Replicon Assay
Settings: Hepatitis C virus, 72 h; replicon RNA by real time PCR (Taqman), day 3; ΔCT=3.2 over baseline
Protocol: To measure cell-based anti-HCV activity of the a Compound of Formula (I), replicon cells were seeded at 5000 cells/well in 96-well collagen I-coated Nune plates in the presence of the Compound of Formula (I). Various concentrations of a Compound of Formula (I), typically in 10 serial 2-fold dilutions, were added to the assay mixture, with the starting concentration ranging from 250 μM to 1 μM. The final concentration of DMSO was 0.5%, fetal bovine serum was 5%, in the assay media. Cells were harvested on day 3 by the addition of 1× cell lysis buffer (Ambion cat #8721). The replicon RNA level was measured using real time PCR (Taqman assay). The amplicon was located in 5B. The PCR primers were: 5B.2F, ATGGACAGGCGCCCTGA (SEQ. ID. NO. 2); 5B.2R, […] (SEQ. ID. NO. 3);the probe sequence was FAM-labeled CACGCCATGCGCTGCGG (SEQ. ID. NO. 4). GAPDH RNA was used as endogenous control and was amplified in the same reaction as NS5B (multiplex PCR) using primers and VIC-labeled probe recommended by the manufacturer (PE Applied Biosystem). The real-time RT-PCR reactions were run on ABI PRISM 7900HT Sequence Detection System using the following program: 48° C. for 30 minutes, 95° C. for 10 minutes, 40 cycles of 95° C. for 15 sec, 60° C. for 1 minute. The ΔCT values (CT5B-CTGAPDH) were plotted against the concentration of test compound and fitted to the sigmoid dose-response model using XLfit4 (MDL). EC50 was defined as the concentration of inhibitor necessary to achieve ΔCT=1 over the projected baseline; EC90 the concentration necessary to achieve ΔCT=3.2 over the baseline. Alternatively, to quantitate the absolute amount of replicon RNA, a standard curve was established by including serially diluted T7 transcripts of replicon RNA in the Taqman assay. All Taqman reagents were from PE Applied Biosystems. Such an assay procedure was described in detail in e.g. Malcolm et al., Antimicrobial Agents and Chemotherapy 50: 1013-1020 (2006).
HCV replicon assay data was calculated for selected compounds of the present invention using this method.

In the case of `N#Cc1ccc(F)c(Cn2c(C(=O)O)c(-c3ccc[nH]c3=O)c3c4occc4c(F)cc32)c1` [Compound 129], the EC90 is reported as less than 100 nM.

`O=Cc1ccc(F)c(Cn2c(C(=O)O)c(-c3ccc[nH]c3=O)c3c4occc4c(F)cc32)c1` [Compound 131] was tested, and the EC90 was less than 100 nM.

In the case of `Cc1cc2[nH]ncc2cc1Cn1c(C(=O)O)c(-c2ccc[nH]c2=O)c2c3occc3c(F)cc21` [Compound 136], the EC90 is reported as less than 100 nM.

Work on `O=C(O)c1c(-c2ccc[nH]c2=O)c2c3occc3c(F)cc2n1Cc1cc2cn[nH]c2cc1Cl` [Compound 150] yielded an EC90 of less than 100 nM.

`O=C(O)c1c(-c2ccc[nH]c2=O)c2c3c(c(F)cc2n1Cc1cc2cn[nH]c2cc1Cl)CCO3` [Compound 157] showed an EC90 of less than 100 nM.

In the case of `Nc1ncnc2cc(F)c(Cn3c(C(=O)O)c(-c4ccc[nH]c4=O)c4c5occc5c(F)cc43)cc12` [Compound 161], the EC90 is reported as less than 100 nM.

`Cn1cnc2cc(Cl)c(Cn3c(C(=O)O)c(-c4ccc[nH]c4=O)c4c5occc5c(F)cc43)cc21` [Compound 162] gave an EC90 of less than 100 nM.

`O=C(O)c1c(-c2ccc[nH]c2=O)c2c3occc3c(F)cc2n1Cc1cc2c(=O)[nH]cnc2cc1Cl` [Compound 164] was tested, and the EC90 was less than 100 nM.

Compound `O=C(O)c1c(-c2ccc[nH]c2=O)c2c3c(c(F)cc2n1Cc1cc2c(=O)[nH]c(=O)[nH]c2cc1F)CCO3` [Compound 165] has an EC90 of less than 100 nM.

`O=C(O)c1c(-c2ccc[nH]c2=O)c2c3occc3c(F)cc2n1Cc1cc2cc[nH]c2cc1Br` [Compound 170] gave an EC90 of less than 100 nM.

Compound `Cc1cc2[nH]ncc2cc1Cn1c(C(=O)OCCN(C)C)c(-c2ccc[nH]c2=O)c2c3occc3c(F)cc21` [Compound 172] has an EC90 of less than 100 nM.

`CN(C)CCOC(=O)c1c(-c2ccc[nH]c2=O)c2c3c(c(F)cc2n1Cc1cc2cn[nH]c2cc1F)CCO3` [Compound 174] gave an EC90 of less than 100 nM.

Work on `CN(C)CCOC(=O)c1c(-c2ccc[nH]c2=O)c2c3occc3c(F)cc2n1Cc1cc(N)nc2ccccc12` [Compound 177] yielded an EC90 of less than 100 nM.

Compound `CN(C)CCOC(=O)c1c(-c2ccc[nH]c2=O)c2c3occc3c(F)cc2n1Cc1cc2c(N)ncnc2cc1F` [Compound 185] has an EC90 of less than 100 nM.

Compound `C=CCNCCOC(=O)c1c(-c2ccc[nH]c2=O)c2c3occc3c(F)cc2n1Cc1cc2cn[nH]c2cc1CC=C` [Compound 188] has an EC90 of less than 100 nM.

`CN(C)CCCOC(=O)c1c(-c2ccc[nH]c2=O)c2c3occc3c(F)cc2n1Cc1cc2c(=O)[nH]cnc2cc1F` [Compound 189] showed an EC90 of less than 100 nM.
